Legend:
RORγ-LBD = molecular target: T1, RORγ-LBD (Homo sapiens, UniProt P51449); test: Fluorescence Energy Transfer (FRET) assay; assay type: biochemical; details: mean of multiple test results if tested more than once; read-out: pIC50 in the FRET assay (converted)
T1 construct: adding an appropriate amount of biotinylated RORγ-LBD and APC-labeled streptavidin
T1 sequence (P51449 269-508 limits assumed): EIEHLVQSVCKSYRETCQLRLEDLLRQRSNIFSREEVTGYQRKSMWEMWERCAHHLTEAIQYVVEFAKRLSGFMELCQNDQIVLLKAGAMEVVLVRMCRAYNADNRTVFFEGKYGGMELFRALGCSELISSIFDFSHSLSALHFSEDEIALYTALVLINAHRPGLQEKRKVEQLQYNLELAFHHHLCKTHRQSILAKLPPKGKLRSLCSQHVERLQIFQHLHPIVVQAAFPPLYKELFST
Experimental: The assays were performed in an assay buffer consisting of 50 mM NaF, 50 mM 3-(N-morpholino)propanesulfonic acid, pH 7.5, 50 μM 3-[(3-cholamidopropyl)dimethylammonio]-propanesulfonate, 0.1 mg/mL bovine serum albumin, and 10 mM dithiothreitol in 384-well plates (Greiner 784076, Longwood, Fla.). The total volume was 10 μL/well. The europium-labeled SRC1 solution was prepared by adding an appropriate amount of biotinylated SRC and europium labeled streptavidin (PerkinElmer Life and Analytical Sciences, Waltham, Mass.) into assay buffer, with final concentrations of 27 and 3.3 nM, respectively. The allophycocyanin (APC)-labeled-LBD solution was prepared by adding an appropriate amount of biotinylated RORγ-LBD and APC-labeled streptavidin (CR130-100; PerkinElmer Life and Analytical Sciences) at a final concentration of 33 nM each. After 15 min of incubation at room temperature, a 20-fold excess of biotin was added to block the remaining free streptavidin. […] The plates were incubated for 1 h at room temperature and then read on ViewLux (PerkinElmer Life and Analytical Sciences) in LANCE mode configured for europeum-APC labels. Data were collected and analyzed by Activitybase.

RORγ = molecular target: T2, RORγ (Homo sapiens, UniProt P51449); test: Jurkat cell luciferase assay (human IL17 promoter reporter); assay type: cell-based; details: mean of multiple test results if tested more than once; read-out: pIC50 in the Jurkat cell luciferase assay (converted)
T2 construct: expressed in transfected cells
T2 sequence (P51449 1-497 isoform P51449-2): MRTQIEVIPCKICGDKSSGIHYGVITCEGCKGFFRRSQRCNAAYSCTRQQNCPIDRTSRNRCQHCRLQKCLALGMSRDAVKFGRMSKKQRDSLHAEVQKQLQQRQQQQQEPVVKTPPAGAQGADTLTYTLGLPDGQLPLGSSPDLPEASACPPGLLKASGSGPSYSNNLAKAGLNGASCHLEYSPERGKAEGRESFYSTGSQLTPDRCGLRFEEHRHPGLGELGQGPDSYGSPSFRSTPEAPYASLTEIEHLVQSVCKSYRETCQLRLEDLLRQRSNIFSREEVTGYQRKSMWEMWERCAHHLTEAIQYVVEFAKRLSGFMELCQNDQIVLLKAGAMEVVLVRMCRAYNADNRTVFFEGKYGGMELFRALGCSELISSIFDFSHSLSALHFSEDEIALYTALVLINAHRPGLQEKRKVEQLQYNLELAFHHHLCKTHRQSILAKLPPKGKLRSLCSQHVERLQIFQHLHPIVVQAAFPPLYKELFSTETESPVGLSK
Source text: RORγ is known to bind to a CNS (conserved non-coding sequences) enhancer element in the IL17 promoter. In this assay, RORγ activity is indirectly assessed using a luciferase reporter construct which contains the human IL17 promoter having the RORγ-specific CNS enhancer element. Inhibition of RORγ activity by a compound will result in a decrease in luciferase activity of Jurkat cells transfected with the reporter construct.
For the luciferase reporter plasmid, the 3 Kb human IL17 promoter containing the RORγ-specific CNS enhancer element was PCR amplified from human genomic DNA and cloned into a pGL4-Luc2/hygro reporter plasmid sequentially as XhoI-HindIII (1.1 Kb) and KpnI-XhoI (1.9 Kb) fragments. For the 1.1 Kb fragment, PCR was used to amplify human IL17 proximal promoter region from genomic DNA of 293T cells using primers as follows: forward primer, 5′-[…]-3′ (XhoI site is underlined) and reverse primer, 5′-[…]-3′ (HindIII site is underlined). The 1.1 kb DNA bands were excised, purified, and inserted into pMD19-T Simple Vector (Takara). […]
Compounds were dissolved in DMSO at three concentrations, 10 mM, 400 uM and 16 uM, and were dispensed into 384-wells assay plate at 40 nl, 12.5 nl, 5 nl respectively. The volume was adjusted with pure DMSO to a give a final uniform volume of 40 nl Jurkat cells described above were counted and centrifuged. […]

IC50 (RORγ-LBD): ~50.1 nM
IC50 (RORγ): ~6.31 nM
Compound: Cc1ncc(C(=O)Nc2cc(Cl)cc(CN3CCN(C(=O)CC4CC4)[C@@H](C)C3)c2C)cc1F [Example 80, (S)—N-(5-chloro-3-((4-(2-cyclopropylacetyl)-3-methylpiperazin-1-yl)methyl)-2-methylphenyl)-5-fluoro-6-methylnicotinamide]
